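Each compound was tested at five concentrations against cells in 96-well plates for 48 hours. Abbreviation: GI50, concentration required for 50% inhibition of growth.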 Activity calls are given as the source filed them. Cut-off read from the data, not from the text of the source: active = GI50 up to about 1.1 µM and inactive = higher.
How the values were obtained:
Assay in all cases: NCI tumour cell line growth inhibition, 48 h
SK-MEL-2 = system: SK-MEL-2
SNB-75 = system: SNB-75
SK-MEL-5 = system: SK-MEL-5
UACC-257 = system: UACC-257
786-0 = system: 786-0
IGROV-1 = system: IGROV-1
SNB-19 = system: SNB-19
NCI/ADR-RES = system: NCI/ADR-RES
HOP-62 = system: HOP-62
MDA-MB-435 = system: MDA-MB-435
BT-549 = system: BT-549
K562 = system: K562
Malme-3M = system: Malme-3M
A498 = system: A498
SW-620 = system: SW-620
HCT-116 = system: HCT-116
MDA-N = system: MDA-N
SK-MEL-28 = system: SK-MEL-28
PC-3 = system: PC-3
UO-31 = system: UO-31

Compound | GI50 (SK-MEL-2) | GI50 (SNB-75) | GI50 (SK-MEL-5) | GI50 (UACC-257) | GI50 (786-0) | GI50 (IGROV-1) | GI50 (SNB-19) | GI50 (NCI/ADR-RES) | GI50 (HOP-62) | GI50 (MDA-MB-435) | GI50 (BT-549) | GI50 (K562) | GI50 (Malme-3M) | GI50 (A498) | GI50 (SW-620) | GI50 (HCT-116) | GI50 (MDA-N) | GI50 (SK-MEL-28) | GI50 (PC-3) | GI50 (UO-31)
Cn1cnc([N+](=O)[O-])c1Sc1nnc(-c2cccnc2)n1C | 18.5 µM (inactive) | 58.7 µM (inactive) | 16.9 µM (inactive) | 13.9 µM (inactive) | 18.5 µM (inactive) | 68.5 µM (inactive) | > 100 µM (inactive) | 46.6 µM (inactive) | > 91.6 µM (inactive) | 14.9 µM (inactive) | 19 µM (inactive) | 19.9 µM (inactive) | 15.5 µM (inactive) | > 79.1 µM (inactive) | 14.7 µM (inactive) | 18.4 µM (inactive) | 19.5 µM (inactive) | 17.5 µM (inactive) | 25 µM (inactive) | 32.4 µM (inactive)
O=C(c1ccccc1)c1ccc2nc3n(c2c1)C(c1c(Cl)cccc1Cl)SC3 (stereo not given) | 8.02 µM (inactive) | 2.34 µM (inactive) | 3.24 µM (inactive) | 13.6 µM (inactive) | 3.86 µM (inactive) | 4.48 µM (inactive) | 3.85 µM (inactive) | 2.13 µM (inactive) | 6.37 µM (inactive) | 1.77 µM (inactive) | 3.54 µM (inactive) | 3.12 µM (inactive) | 2.81 µM (inactive) | 15.7 µM (inactive) | 3.53 µM (inactive) | 3.26 µM (inactive) | 1.63 µM (inactive) | 10.4 µM (inactive) | 5.41 µM (inactive) | 3.17 µM (inactive)
Cc1cccc(NC(=S)Nc2cccc(Cl)c2)n1 | > 72.8 µM (inactive) | > 54 µM (inactive) | > 100 µM (inactive) | > 100 µM (inactive) | > 70.6 µM (inactive) | 44.2 µM (inactive) | > 60.4 µM (inactive) | > 96.4 µM (inactive) | 39.4 µM (inactive) | > 100 µM (inactive) | > 100 µM (inactive) | > 100 µM (inactive) | > 100 µM (inactive) | > 70.3 µM (inactive) | > 100 µM (inactive) | > 100 µM (inactive) | > 100 µM (inactive) | > 100 µM (inactive) | > 100 µM (inactive) | > 100 µM (inactive)
O=C(NCCNCCO)N/N=C/c1ccc(Cl)cc1 | > 100 µM (inactive) | 36.1 µM (inactive) | > 100 µM (inactive) | > 100 µM (inactive) | > 100 µM (inactive) | > 100 µM (inactive) | > 100 µM (inactive) | > 100 µM (inactive) | > 100 µM (inactive) | > 100 µM (inactive) | > 100 µM (inactive) | > 100 µM (inactive) | > 100 µM (inactive) | > 100 µM (inactive) | > 100 µM (inactive) | > 100 µM (inactive) | > 100 µM (inactive) | > 100 µM (inactive) | > 100 µM (inactive) | > 100 µM (inactive)
Cc1ccc(N2C=Nn3c(nc4sc5c(c4c3=O)CCCC5)C2)cc1 | > 100 µM (inactive) | 52 µM (inactive) | 29.8 µM (inactive) | 54.8 µM (inactive) | 35.7 µM (inactive) | 88.3 µM (inactive) | 78.2 µM (inactive) | 70.3 µM (inactive) | 21.2 µM (inactive) | 99.3 µM (inactive) | > 100 µM (inactive) | 38.5 µM (inactive) | 49.4 µM (inactive) | 54.5 µM (inactive) | 51.8 µM (inactive) | 41.2 µM (inactive) | 70.5 µM (inactive) | 93.5 µM (inactive) | 49.4 µM (inactive) | > 100 µM (inactive)
CCCCCCCCCC(=O)NCCc1c[nH]c2ccc(OC)cc12 | 16.1 µM (inactive) | 20.6 µM (inactive) | 18.5 µM (inactive) | 20.8 µM (inactive) | 19.2 µM (inactive) | 14.9 µM (inactive) | 16.5 µM (inactive) | 19.2 µM (inactive) | 16.4 µM (inactive) | 24.5 µM (inactive) | 18.6 µM (inactive) | 55 µM (inactive) | 18.2 µM (inactive) | 16.3 µM (inactive) | 18.2 µM (inactive) | 21.4 µM (inactive) | 18.8 µM (inactive) | 17.9 µM (inactive) | 15.3 µM (inactive) | 12.7 µM (inactive)
S=c1[nH]nc(Cn2c3ccc(Br)cc3c3nc4ccccc4nc32)o1 | 8.67 µM (inactive) | 86.1 µM (inactive) | 31.6 µM (inactive) | > 58.6 µM (inactive) | 34.3 µM (inactive) | 31.9 µM (inactive) | 53 µM (inactive) | 74.5 µM (inactive) | 29.9 µM (inactive) | 16.7 µM (inactive) | > 63.2 µM (inactive) | 35.1 µM (inactive) | 42.3 µM (inactive) | 43.9 µM (inactive) | 18.7 µM (inactive) | 28.3 µM (inactive) | 41 µM (inactive) | 27.3 µM (inactive) | 4.79 µM (inactive) | 16.3 µM (inactive)
O=C1C[C@H](COCc2ccccc2)NC(=O)C[C@H](COCc2ccccc2)NC(=O)C[C@H](COCc2ccccc2)N1 | 28.2 µM (inactive) | 2.55 µM (inactive) | > 100 µM (inactive) | > 100 µM (inactive) | 16.9 µM (inactive) | > 100 µM (inactive) | 18.6 µM (inactive) | > 100 µM (inactive) | 17.9 µM (inactive) | > 100 µM (inactive) | 41.6 µM (inactive) | 3.52 µM (inactive) | > 100 µM (inactive) | 12 µM (inactive) | > 100 µM (inactive) | 32.4 µM (inactive) | > 100 µM (inactive) | > 100 µM (inactive) | > 100 µM (inactive) | > 100 µM (inactive)
CCOC(=O)c1cccc(NC(=O)CI)c1 | 0.871 µM (active) | 1.42 µM (inactive) | 0.507 µM (active) | 1.36 µM (inactive) | 0.169 µM (active) | 0.338 µM (active) | 3.54 µM (inactive) | 0.5 µM (active) | 1.36 µM (inactive) | 0.263 µM (active) | 0.381 µM (active) | 0.191 µM (active) | 1.21 µM (inactive) | 2.07 µM (inactive) | 0.207 µM (active) | 0.301 µM (active) | 0.211 µM (active) | 2.2 µM (inactive) | 1.14 µM (inactive) | 0.189 µM (active)
CSCCCNC(=O)c1csc([C@@H](CSC)NC(=O)CCNC(=O)[C@@H](NC(=O)OCC(Br)(Br)Br)C(C)O)n1 (stereo not given in full) | > 100 µM (inactive) | > 100 µM (inactive) | > 100 µM (inactive) | > 100 µM (inactive) | > 100 µM (inactive) | > 100 µM (inactive) | > 100 µM (inactive) | > 100 µM (inactive) | > 100 µM (inactive) | > 100 µM (inactive) | > 100 µM (inactive) | > 100 µM (inactive) | > 100 µM (inactive) | > 100 µM (inactive) | > 100 µM (inactive) | > 100 µM (inactive) | > 100 µM (inactive) | > 100 µM (inactive) | > 100 µM (inactive) | > 100 µM (inactive)
CCOC(=O)[C@H]1C[C@]23CN(C(=O)OC(C)(C)C)CC[C@H]2CCC2(SCCCS2)[C@@H]3N1C | 22.2 µM (inactive) | 72.9 µM (inactive) | 18.5 µM (inactive) | 25.6 µM (inactive) | 34.5 µM (inactive) | 49.9 µM (inactive) | 76 µM (inactive) | 27.2 µM (inactive) | 39.9 µM (inactive) | 37.7 µM (inactive) | 50.2 µM (inactive) | 36.6 µM (inactive) | 28.4 µM (inactive) | 52.2 µM (inactive) | 47.8 µM (inactive) | 31.8 µM (inactive) | 30.1 µM (inactive) | 91 µM (inactive) | 25.2 µM (inactive) | 37.8 µM (inactive)
O=c1cc(-c2ccccc2)oc2ccc(Oc3nnnn3-c3ccccc3)cc12 | 39.2 µM (inactive) | 47.3 µM (inactive) | > 100 µM (inactive) | > 100 µM (inactive) | 25.9 µM (inactive) | > 75.5 µM (inactive) | 33.2 µM (inactive) | 78.2 µM (inactive) | 29.4 µM (inactive) | 11.9 µM (inactive) | 15.3 µM (inactive) | 3.58 µM (inactive) | > 100 µM (inactive) | 90.2 µM (inactive) | > 100 µM (inactive) | > 81.1 µM (inactive) | 5.15 µM (inactive) | > 55.8 µM (inactive) | > 100 µM (inactive) | > 100 µM (inactive)
COc1ccc(NC(=O)CC(=O)N2N=C(c3ccccc3)C(/N=N/c3ccc(S(=O)(=O)CCOS(=O)(=O)O)cc3)C2=O)cc1 (stereo not given) | > 100 µM (inactive) | > 100 µM (inactive) | > 100 µM (inactive) | > 100 µM (inactive) | > 100 µM (inactive) | > 100 µM (inactive) | > 100 µM (inactive) | > 100 µM (inactive) | > 100 µM (inactive) | > 100 µM (inactive) | > 100 µM (inactive) | > 100 µM (inactive) | > 100 µM (inactive) | > 100 µM (inactive) | > 100 µM (inactive) | > 100 µM (inactive) | > 100 µM (inactive) | > 100 µM (inactive) | > 100 µM (inactive) | > 100 µM (inactive)
C=C1c2ccccc2Oc2nc3nc(N)c(C#N)c(N)c3c(N)c21 | 17.8 µM (inactive) | 24.5 µM (inactive) | 17.6 µM (inactive) | 53.1 µM (inactive) | 27 µM (inactive) | 2.39 µM (inactive) | 40.7 µM (inactive) | 28.4 µM (inactive) | 19.1 µM (inactive) | 30.5 µM (inactive) | 39.9 µM (inactive) | 40.7 µM (inactive) | 22.8 µM (inactive) | > 100 µM (inactive) | 30.5 µM (inactive) | 22.9 µM (inactive) | 38.4 µM (inactive) | 41.8 µM (inactive) | 19.3 µM (inactive) | 25.2 µM (inactive)
